Data published in patent US20050282877A1, “Method of decreasing inflammation in kidney transplantion using angiotensin receptor blockers” (priority 2004, published 2005).

Columns and labels:
[1] = system: peripheral blood lymphocytes (PBLs); experiment: Proliferation assay ([3H]-thymidine) of CD3/CD28-stimulated PBLs from CAN patients; format: in vivo, human
Method: Once identified, study subjects were randomized and treated with either losartan (25-100 mg) as part of their anti-hypertensive regimen or with other types of anti-hypertensive agents, e.g., calcium channel blockers. Agents functioning as AT1R blockers were excluded. Neither group received ACE inhibitors. Study subjects were maintained on their standard immunosuppressive regimen (corticosteroids 5-10 mg orally daily; mycophenolate mofetil 500 to 1000 mg orally twice a day; and calcineurin inhibition with either tacrolimus (target levels 2-5 ng/ml), cyclosporine A (target levels 100-150 ng/ml), or rapamycin (target levels 5-15 ng/ml ). Eight to nine milliliters of whole blood taken at each time point from each individual were incubated at room temperature in 40 ml ACK lysis buffer (150 mM NH4Cl, 10 mM KHCO3, 0.1 mM Na2EDTA, pH 7.3) for 10 minutes to lyse red blood cells. Samples were then centrifuged at 1000 rpm. The supernatant was discarded. Cells were resuspended in 10 ml complete RPMI media (RPMI-1640, BioWhitaker, Walkersville, Md.) supplemented with FCS (Sigma Aldrich, St. Louis, Mo.); 2 mM L-glutamine (BioWhitaker); 50 μM 2-β-mercaptoethanol (Sigma Aldrich); 100 U/ml penicillin; and 100 μg/ml streptomycin sulfate (Sigma Aldrich). Twenty μl of this sample was removed for cell enumeration. Forty ml of complete RPMI media was then added to the remaining sample and this was centrifuged at 1000 rpm for 10 minutes. The resulting PBL pellet was resuspended in complete RPMI media at a concentration of 1.5×10^6 cells per ml. CD3/CD28-coated plates were coated with antibody diluted in PBS (1 mg/mI). […] Some plates were analyzed immediately after the overnight incubation. Other plates were frozen at 20EC and then analyzed within 30 days of the initial study. [^3H]-Thymidine incorporation was then determined using a Packard TopCount NXT scintillation plate reader. […] The Δ proliferation index was then calculated by assessing the difference between the proliferation index at baseline and the proliferation index at various study time points as indicated.

[2] = system: urinary H2O2; experiment: Detection of urinary hydrogen peroxide (H2O2) in kidney transplant recipients with CAN; format: in vivo, human; details: mean±SD
Method: The study, enrollment process, and protocols described herein were approved by the University of Wisconsin Institutional Review Board. Individuals with evidence of chronic allograft dysfunction have allograft functionality greater than 6 months with serum creatinine≧0.3 mg/dl above discharge creatinine. In the absence of acute rejection, these individuals have obstructive uropathy or urinary tract infection. To be eligible for the study, individuals also had concomitant evidence of elevated blood pressure (>140/80) and/or proteinuria (>2+ on dipstick urinalysis or spot urine protein-to-creatinine ratio>1).
(§1) Once identified, study subjects were randomized and treated with either losartan (25-100 mg) as part of their anti-hypertensive regimen or with other types of anti-hypertensive agents, e.g., calcium channel blockers. Agents functioning as AT1R blockers were excluded. Neither group received ACE inhibitors. Study subjects were maintained on their standard immunosuppressive regimen (corticosteroids 5-10 mg orally daily; mycophenolate mofetil 500 to 1000 mg orally twice a day; and calcineurin inhibition with either tacrolimus (target levels 2-5 ng/ml), cyclosporine A (target levels 100-150 ng/ml), or rapamycin (target levels 5-15 ng/ml ).
(§2) Study subjects underwent biopsies at the initiation of the study. Simultaneously, whole blood samples were obtained for analysis of peripheral blood lymphocyte proliferation and stimulated cytokine production. Subsequent whole blood samples were obtained at three-month intervals for serial analyses. […] Estimated glomerular filtration rate (eGFR) was assessed using the second equation derived by Nankivell. […]
The Amplex Red Hydrogen Peroxide/Peroxidase Assay Kit (Molecular Probes, Eugene, Ore.) was used according to the manufacturer's instructions to measure H2O2. […] A microplate reader with fluorescence emission detection at 590 nm was used to measure H2O2 levels. H2O2 concentrations were read from the standard curve.

[3] = system: plasma proteins; details: in vivo; cited from earlier work
[4] = system: STAT3; details: losartan treatment; cited from earlier work
[5] = system: IFN-Γ; experiment: ELISpot assay for T cell generation of IFN-Γ in PBLs from CAN patients; format: in vivo, human
Method: Once identified, study subjects were randomized and treated with either losartan (25-100 mg) as part of their anti-hypertensive regimen or with other types of anti-hypertensive agents, e.g., calcium channel blockers. Agents functioning as AT1R blockers were excluded. Neither group received ACE inhibitors. Study subjects were maintained on their standard immunosuppressive regimen (corticosteroids 5-10 mg orally daily; mycophenolate mofetil 500 to 1000 mg orally twice a day; and calcineurin inhibition with either tacrolimus (target levels 2-5 ng/ml), cyclosporine A (target levels 100-150 ng/ml), or rapamycin (target levels 5-15 ng/ml ). Eight to nine milliliters of whole blood taken at each time point from each individual were incubated at room temperature in 40 ml ACK lysis buffer (150 mM NH4Cl, 10 mM KHCO3, 0.1 mM Na2EDTA, pH 7.3) for 10 minutes to lyse red blood cells. Samples were then centrifuged at 1000 rpm. The supernatant was discarded. Cells were resuspended in 10 ml complete RPMI media (RPMI-1640, BioWhitaker, Walkersville, Md.) supplemented with FCS (Sigma Aldrich, St. Louis, Mo.); 2 mM L-glutamine (BioWhitaker); 50 μM 2-β-mercaptoethanol (Sigma Aldrich); 100 U/ml penicillin; and 100 μg/ml streptomycin sulfate (Sigma Aldrich). Twenty μl of this sample was removed for cell enumeration. Forty ml of complete RPMI media was then added to the remaining sample and this was centrifuged at 1000 rpm for 10 minutes. The resulting PBL pellet was resuspended in complete RPMI media at a concentration of 1.5×10^6 cells per ml. ELISpot assays were conducted according to the manufacturer's directions (Cellular Technology Ltd., Cleveland, Ohio). Briefly, after plating cells in the proliferation assay, the balance of the cells unused in that assay were used for the ELISpot assay at a concentration of 3×10^6 cells per ml. One hundred μl of RPMI media were added to each well with a multichannel pipetter. Aliquots of treated and untreated cells (300 μl) were added to the IFN-Γ and IL-5 wells with serial two-fold dilutions. The last row served as a media control. ELISpot plates were incubated for two days at 37EC. Plates were washed three times with PBS and then washed three times with PBS/Tween. Secondary detection antibodies (OptElA, IFN, and IL-5 obtained from the aforementioned kits) were diluted at 4 μl/ml in 1% BSA/PBS and added to the plates for 24 hours at 4EC. The plates were then washed four times with PBS/Tween. Streptavidin alkaline phosphatase 1:1000 (Dako Cytomation, Glostrop, Denmark, catalog no. D0396) 100 μl/well diluted in 1% BSA/PBS/Tween was then added to the plates at room temperature for two hours. […] Plate images were then scanned into computer images and spots analyzed using Immunospot-brand software (from CTL Technologies).

[6] = Estimated glomerular filtration rate (eGFR) in the study cohort; format: in vivo, human; details: with institution of ARB therapy, compared to control group
Method: FIG. 1B is a graph depicting the estimated glomerular filtration rate (eGFR) in the study cohort. Estimated GFR was calculated using the second equation derived by Nankivell et al. at the time points designated in the Examples. […] The eGFR in the ARB-treated cohort (-o-) declined slightly after treatment as compared to the control group (-▪-). Data shown are mean±standard deviation.
as §1
Study subjects underwent biopsies at the initiation of the study. Simultaneously, whole blood samples were obtained for analysis of peripheral blood lymphocyte proliferation and stimulated cytokine production. […] Estimated glomerular filtration rate (eGFR) was assessed using the second equation derived by Nankivell. […]

[7] = system: IL-4 or IL-5; experiment: ELISpot assay for IL-4 or IL-5 production in PBLs from CAN patients; format: in vivo, human; details: following institution of ARB therapy (data not shown)
Method: Once identified, study subjects were randomized and treated with either losartan (25-100 mg) as part of their anti-hypertensive regimen or with other types of anti-hypertensive agents, e.g., calcium channel blockers. Agents functioning as AT1R blockers were excluded. Neither group received ACE inhibitors. Study subjects were maintained on their standard immunosuppressive regimen (corticosteroids 5-10 mg orally daily; mycophenolate mofetil 500 to 1000 mg orally twice a day; and calcineurin inhibition with either tacrolimus (target levels 2-5 ng/ml), cyclosporine A (target levels 100-150 ng/ml), or rapamycin (target levels 5-15 ng/ml ). ELISpot assays were conducted according to the manufacturer's directions (Cellular Technology Ltd., Cleveland, Ohio). Briefly, after plating cells in the proliferation assay, the balance of the cells unused in that assay were used for the ELISpot assay at a concentration of 3×10^6 cells per ml. One hundred μl of RPMI media were added to each well with a multichannel pipetter. Aliquots of treated and untreated cells (300 μl) were added to the IFN-Γ and IL-5 wells with serial two-fold dilutions. The last row served as a media control. ELISpot plates were incubated for two days at 37EC. […] Plate images were then scanned into computer images and spots analyzed using Immunospot-brand software (from CTL Technologies).

[8] = system: STAT1; details: losartan treatment; cited from earlier work
[9] = cited from earlier work
[10] = Systolic blood pressure in the study cohort; format: in vivo, human; details: every clinic visit at 3-month intervals
Method: FIG. 1A is a graph depicting the systolic blood pressure in the study cohort. (The study cohort is described in the Examples.) Blood pressure was assessed at every clinic visit at 3-month intervals. […] Data shown are mean±standard deviation.”
as §1, §2

## CCCCc1nc(Cl)c(CO)n1Cc1ccc(-c2ccccc2-c2nnn[nH]2)cc1.[K] [losartan, 2-butyl-4-chloro-1-[p-(o-1H-tetrazol-5-ylphenyl)benzyl]imidazole-5-methanol monopotassium salt]
[1]; 6 month of losartan treatment, p<0.005
  reduction in T lymphocyte proliferation indices versus the control group: 69±47 % decrease
[1]; 9 month of losartan treatment, p<0.05
  reduction in T lymphocyte proliferation indices versus the control group: 52±21 % decrease
[1]; three, six, and nine months, p<0.04
  Δ proliferation index (change from baseline): significant reduction
[2]; 6 months of treatment
  urinary H2O2 excretion: 2.17 ± 0.42 µM
[2]; 9 months of treatment, p<0.05 vs. time 0
  urinary H2O2 excretion: 1.65 ± 0.49 µM
[2]; baseline (time 0), ARB cohort
  urinary H2O2: 2.51 ± 0.62 µM
[3]
  plasma-free fraction: 1.3%
[4]
  phosphorylation of STAT3: decrease phosphorylation
[5]; 3 months, p=0.01 vs control
  IFN-Γ producing cells (ELISpot): 4127±1289 spots per 1×10^6 cells
[5]; 6 months, p=0.05 vs control
  IFN-Γ producing cells (ELISpot): 3899±1508 spots per 1×10^6 cells
[5]; 9 months, p<0.001 vs control
  IFN-Γ producing cells (ELISpot): 3845±1493 spots per 1×10^6 cells
[5]; 12 months, p<0.05 vs control
  IFN-Γ producing cells (ELISpot): 4276±1456 spots per 1×10^6 cells
[6]
  eGFR: slight reduction
[7]
  IL-4 or IL-5 production: no significant change
[8]
  phosphorylation of STAT1: decrease phosphorylation
[9]; acetonitrile and methyl ethyl ketone
  solubility in common organic solvents: slightly soluble
[9]; alcohols
  solubility in alcohols: soluble
[9]; water
  solubility in water: freely soluble
[10]
  systolic blood pressure, ARB-treated versus non-ARB-treated cohort: no significant differences

## CCCCc1nc(Cl)c(C(=O)O)n1Cc1ccc(-c2ccccc2-c2nn[nH]n2)cc1 [active metabolite of losartan]
[3]
  plasma-free fraction: 0.2%

## CCCc1nc2c(C)cc(-c3nc4ccccc4n3C)cc2n1Cc1ccc(-c2ccccc2C(=O)O)cc1 [Telmisartan, 4′-[(1,4′-dimethyl-2′-propyl [2,6′-bi-1H-benzimidazol]-1′-yl)methyl]-[1,1′-biphenyl]-2-carboxylic acid]
[9]; strong acids (except HCl)
  solubility in strong acids: sparingly soluble
[9]; strong bases
  solubility in strong bases: soluble
[9]; water, pH range of from 3 to 9
  solubility in water within a pH range: practically insoluble
